Source: patent US12653902B2, “Photo-immunoconjugate formulations and methods of treatment relating thereto” (University of Maryland, College Park, priority 2019, dated 2026)

Legend:
OVCAR-5 cells = test: Intracellular BPD uptake (BPD fluorescence, extraction and imaging); assay type: cell-based, human; conditions: 24 hours post-incubation, compared to PIC and PIC-Nal
Experimental: For uptake and phototoxicity studies, OVCAR-5 cells (200 k cells/35-mm dish) were incubated with PIC-Nal or controls (i.e., PIC alone, no-treatment) at a fixed BPD concentration (0.25 μM) for 24 hours. For uptake study, cells were washed twice with PBS and dissolved in SOLVABLE™. The BPD fluorescence signals (Ex/Em: 435/690 nm) were acquired using a microplate reader to quantify the uptake of PIC-Nal. In another set of experiments, washed cells were fixed with 4% paraformaldehyde, and stained with DAPI. Cells were imaged with the LionHeart Imager (BioTek) using the 10× objective to visualize the BPD signal (Ex/Em: 422/690 nm) and the DAPI signal (Ex/Em: 358/461 nm). BPD fluorescence intensity was quantified using ImageJ (Schneider C A et al., NIH Image to ImageJ: 25 years of image analysis. Nat Methods 2012, 9:671-675). For phototoxicity studies, cells were irradiated with a 690 nm laser (20 J/cm^2, 150 mW/cm^2) at 24 hours post-incubation of PIC-Nal or controls. Cell viability was determined by MTT (3-(4,5-dimethylthiazol-2-yl)-2,5-diphenyltetrazolium bromide) assay (Thermo) at 24 hours post-light activation.

[1] = Photoactivity (maximal fluorescence intensity in PBS divided by that in DMSO); assay type: physicochemical; conditions: maximal FI in PBS divided by maximal FI in DMSO
Experimental: Photo-immunoconjugate-nanoliposomes (PIC-Nal) and photo-immunoconjugate-nanoliposomal irinotecan (PIC-Nal-IRI) were synthesized via cooper-free click chemistry (FIG. 1). Briefly, azide-containing PICs were mixed overnight with DBCO-containing Nal (or DBCO-containing Nal-IRI) at 60:1 ratio. Sepharose CL-4B size exclusion chromatography was used to purify PIC-Nal and PIC-Nal-IRI. Irinotecan and BPD concentrations were determined by UV-Vis spectroscopy and established molar extinction coefficients: 20985 M^−1cm^−1 at 380 nm for irinotecan, 80500 M^−1cm^−1 at 435 nm and 34,895 M^−1 cm^−1 at 687 nm for BPD (Table 1). Conjugation efficacy was determined by the molar ratio of PIC onto the liposomes to the total PIC added initially. Singlet oxygen sensor green (SOSG, 5 μM) was used to detect singlet oxygen (^1O2) yield upon light irradiation of PIC-Nal-IRI or controls. BPD concentration is fixed at 5 μM. A microplate reader (BioTek) was used to acquire SOSG fluorescence signals (Ex/Em: 504/525 nm) before and after light irradiation (690 nm, 150 mW/cm^2, 20 J/cm^2). Photoactivity is defined as the maximal fluorescence intensity (FI) of photosensitizer in PBS divided by the maximal FI of photosensitizer in DMSO.

[2] = cited from earlier work
[3] = Absorbance at 690 nm in PBS compared to DMSO; assay type: physicochemical; conditions: fixed BPD concentration

photoactivity [1]: poor photoactivity
loss of absorbance value at 690 nm in PBS compared to fully dissolved in DMSO [3]: ~64%
Substance: benzoporphyrin derivative [BPD]
intracellular uptake by fluorescence imaging (OVCAR-5 cells): highest uptake
water solubility [2]: < 50 µg/mL
